Experiments:
PKAα = target: T1, PKAα (Homo sapiens, UniProt P17612); test: Kinase selectivity profiling (Eurofins), PKAα; assay type: biochemical
T1 construct: purchased Eurofins
Excerpt: The results of this screening were mapped over the annotated human kinome phylogenetic tree using Kinome Render (Figure 2).
Kinases inhibited less than 25% have their names in green text. Kinases inhibited >25% and ≤50% have yellow circles, >50% and ≤75% have orange circles, and >75% have red circles. In each case, the size of the circle is proportional to the percentage inhibition. ROCK1 and MRCKα positions are indicated on the tree for orientation purposes. Illustration reproduced courtesy of Cell Signaling Technology, Inc. (www.cellsignal.com).
MRCKα, MRCKβ, ROCK1 and ROCK2 assays were performed using an IMAP fluorescence polarization assay format (Molecular Devices Inc.). 8–12 nM of each kinase (Life Technologies) was incubated for 60 min at room temperature with 100 nM FAM-S6-ribosomal protein derived peptide (synthesized by Alta Biosciences, University of Birmingham UK) in the presence of 1 μM ATP and 0.5 mM MgCl2 in 20 mM Tris buffer (pH 7.4) containing 0.01% Tween-20 and 1 mM DTT (MRCKα and β); or 1 μM ATP, 10 mM MgCl2 in 20 mM Tris buffer (pH 7.5) containing 0.25 mM EGTA 0.01% Triton X-100 and 1 mM DTT (ROCK1 and ROCK2). […] After 30 min incubation to allow binding reagent to bind phosphorylated peptide, fluorescence polarization was measured on a Tecan Saphire^2 plate reader at excitation (470 nm) and emission (530 nm) wavelengths. […]

ROCK2 = ROCK2 (Homo sapiens, UniProt O75116); test: IMAP fluorescence polarization kinase assay, ROCK2; assay type: biochemical; set-up: purchased Life Technologies; details: in vitro, 1 μM ATP
Method: MRCKα, MRCKβ, ROCK1 and ROCK2 assays were performed using an IMAP fluorescence polarization assay format (Molecular Devices Inc.). 8–12 nM of each kinase (Life Technologies) was incubated for 60 min at room temperature with 100 nM FAM-S6-ribosomal protein derived peptide (synthesized by Alta Biosciences, University of Birmingham UK) in the presence of 1 μM ATP and 0.5 mM MgCl2 in 20 mM Tris buffer (pH 7.4) containing 0.01% Tween-20 and 1 mM DTT (MRCKα and β); or 1 μM ATP, 10 mM MgCl2 in 20 mM Tris buffer (pH 7.5) containing 0.25 mM EGTA 0.01% Triton X-100 and 1 mM DTT (ROCK1 and ROCK2). Typically, dose response analyses were performed over concentration ranges from 0.005 - 100 μM. Reactions were stopped by adding 2 assay volumes of 0.25% (v/v) IMAP binding reagent in 1× IMAP binding buffer A (Molecular Devices). After 30 min incubation to allow binding reagent to bind phosphorylated peptide, fluorescence polarization was measured on a Tecan Saphire^2 plate reader at excitation (470 nm) and emission (530 nm) wavelengths. Inhibition was calculated using no inhibitor and no enzyme controls as 0 and 100% inhibition, respectively.

ROCK1 = ROCK1 (Homo sapiens, UniProt Q13464); test: MLC phosphorylation in MDA-MB-231 cells expressing doxycycline-induced ROCK1 kinase domain (quantitative western blot); set-up: The kinase domains of MRCKβ (1–473), ROCK1 (1–535) or ROCK2 (1–532) were gene synthesized; expressed in transfected cells; host or cells: MDA-MB-231 D3H2LN-Luc Tet3G cells, pTRE3G-ROCK1 (1–535); details: doxycycline-induced MDA-MB-231, 60 minutes treatment; read-out: cell based EC50, MLC phosphorylation induced by ROCK1
Method: (A) MDA-MB-231 breast cancer cells expressing doxycycline inducible ROCK1, ROCK2 or MRCKβ kinase domains were established as indicated. Following treatment with doxycycline for 18 hours to induce expression, cell lysates were western blotted with antibodies as indicated. […] All results are shown as mean ± standard error of n = 4 independent replicates.
MDA-MB-231 D3H2LN-Luc cells (Caliper LifeScience) were grown in MEM/EBSS (Hyclone) supplemented with 10% fetal bovine serum (FBS) (Gibco), 1 mM Sodium Pyruvate (Sigma) 2 mM L-glutamine (Gibco), 1× MEM non-essential amino acids (Gibco) plus penicillin-streptomycin (10 Units/ml and 10 μg/ml respectively) at 37°C in 5% CO2 in a humidified incubator. MDA-MB-231 D3H2LN-Luc TetOn MRCKβ, ROCK1 and ROCK2 selective cell lines were grown in the same media with 10% FBS replaced with 10% Tet System Approved FBS (Clontech).
The kinase domains of MRCKβ (1–473), ROCK1 (1–535) or ROCK2 (1–532) were gene synthesized (Genscript) and subcloned into pTRE3G (Clontech). MDA-MB-231 D3H2LN-Luc Tet3G cells were co-transfected with pTRE3G-MRCKβ (1–473), pTRE3G-ROCK1 (1–535) or pTRE3G-ROCK2 (1–532), together with a linear Pur^r-selection marker using Xfect transfection reagent according to manufacturer’s instructions. […] Each clone was treated with or without doxycycline (1 μg/ml) for 24 hours and kinase domain expression and activity determined by western blotting. […]

[1] = test system: MLC phosphorylation in SCC12 cells; test: MLC phosphorylation in SCC12 squamous cell carcinoma cells (quantitative western blot); assay type: cell-based, human
Method: All results are shown as mean ± standard error of n = 3 independent replicates. […] Readings were compared to the Alamar Blue metabolism in DMSO treated cells that were used as the viability standard of 100% for each replicate experiment. […] (F) Number of invading cells was determined in 5 random fields for each condition for each separate replicate experiment. All results are shown as mean ± standard error of n ≥ 3 independent replicates.
Cell lysates were prepared as described previously. For pMLC western blots, cells were lysed in a 1% (w/v) SDS, 50 mM Tris pH 7.5 buffer and lysates were passed through QIAshredder columns (Qiagen, 79654). Alternatively, for pMLC western blots lysates were prepared in lysis buffer with 50 mM Tris (pH7.5), 0.5% (w/v) SDS, supplemented with Complete Protease and PhosSTOP inhibitors (Roche). Whole cell lysates were separated by SDS-PAGE, transferred to Protran nitrocellulose membranes (Whatman), probed with primary antibodies and appropriate IR dye-conjugated secondary antibodies. Blots were visualized using a Licor Odyssey according to manufacturer’s instructions. […]

Chain of ROCK2 (O75116 whole entry): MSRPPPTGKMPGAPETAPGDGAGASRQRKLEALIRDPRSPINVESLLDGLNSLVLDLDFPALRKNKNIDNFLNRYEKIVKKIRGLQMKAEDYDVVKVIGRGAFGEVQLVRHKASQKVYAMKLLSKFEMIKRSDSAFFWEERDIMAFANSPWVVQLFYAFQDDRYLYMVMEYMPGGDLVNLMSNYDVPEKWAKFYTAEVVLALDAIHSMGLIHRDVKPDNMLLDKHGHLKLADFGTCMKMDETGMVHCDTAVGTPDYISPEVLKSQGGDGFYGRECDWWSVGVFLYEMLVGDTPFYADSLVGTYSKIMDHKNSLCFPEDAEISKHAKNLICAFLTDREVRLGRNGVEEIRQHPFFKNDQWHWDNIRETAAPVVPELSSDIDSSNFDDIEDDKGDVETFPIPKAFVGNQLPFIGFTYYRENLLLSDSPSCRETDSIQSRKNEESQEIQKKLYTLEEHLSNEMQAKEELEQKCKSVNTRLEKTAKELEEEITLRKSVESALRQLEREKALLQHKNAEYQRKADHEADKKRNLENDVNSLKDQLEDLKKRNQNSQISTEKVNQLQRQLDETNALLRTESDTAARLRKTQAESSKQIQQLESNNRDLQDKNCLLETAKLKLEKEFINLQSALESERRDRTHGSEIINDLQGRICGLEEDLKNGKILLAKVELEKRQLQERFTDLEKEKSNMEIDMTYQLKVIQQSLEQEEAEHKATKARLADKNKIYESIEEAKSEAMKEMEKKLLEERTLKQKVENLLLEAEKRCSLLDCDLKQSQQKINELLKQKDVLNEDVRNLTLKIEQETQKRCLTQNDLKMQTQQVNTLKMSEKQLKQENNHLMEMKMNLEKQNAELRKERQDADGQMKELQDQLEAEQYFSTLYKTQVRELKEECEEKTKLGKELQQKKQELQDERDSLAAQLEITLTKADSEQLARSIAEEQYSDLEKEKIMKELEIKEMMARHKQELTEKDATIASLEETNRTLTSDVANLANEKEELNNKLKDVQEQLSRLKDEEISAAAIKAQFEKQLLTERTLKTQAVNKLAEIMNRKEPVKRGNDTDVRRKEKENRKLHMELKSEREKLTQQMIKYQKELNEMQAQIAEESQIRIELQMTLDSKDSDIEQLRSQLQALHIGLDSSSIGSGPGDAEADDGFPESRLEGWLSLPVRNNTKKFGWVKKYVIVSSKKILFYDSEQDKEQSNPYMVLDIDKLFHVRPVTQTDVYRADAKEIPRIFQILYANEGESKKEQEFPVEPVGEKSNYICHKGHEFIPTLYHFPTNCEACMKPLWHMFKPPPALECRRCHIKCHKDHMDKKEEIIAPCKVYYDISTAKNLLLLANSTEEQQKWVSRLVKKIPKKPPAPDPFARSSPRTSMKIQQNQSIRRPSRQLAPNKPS
Chain of ROCK1 (Q13464 1-535): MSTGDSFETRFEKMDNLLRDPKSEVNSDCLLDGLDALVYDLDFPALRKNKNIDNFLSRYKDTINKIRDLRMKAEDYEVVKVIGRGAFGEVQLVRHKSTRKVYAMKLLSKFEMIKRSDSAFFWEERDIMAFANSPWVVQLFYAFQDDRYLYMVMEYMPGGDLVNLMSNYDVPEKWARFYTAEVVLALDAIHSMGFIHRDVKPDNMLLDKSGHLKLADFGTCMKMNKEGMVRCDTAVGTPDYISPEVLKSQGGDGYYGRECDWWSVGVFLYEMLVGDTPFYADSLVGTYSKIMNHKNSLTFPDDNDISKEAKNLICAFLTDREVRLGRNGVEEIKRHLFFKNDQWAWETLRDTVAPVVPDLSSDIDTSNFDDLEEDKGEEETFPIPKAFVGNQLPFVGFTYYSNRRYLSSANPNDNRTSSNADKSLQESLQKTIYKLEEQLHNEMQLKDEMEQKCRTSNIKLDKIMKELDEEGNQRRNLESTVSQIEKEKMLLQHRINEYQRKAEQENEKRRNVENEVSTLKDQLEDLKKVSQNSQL

Row | SMILES | inhibition at 10 µM (PKAα) [%] | IC50 (ROCK2) [nM] | EC50 (ROCK1) [nM] | phosphorylated MLC at higher doses in SCC12 cells [1]
1 | O=C(Nc1cn[nH]c1-c1ccccn1)c1nn(C2CCNCC2)cc1Cl [BDP5290, 4-chloro-1-(4-piperidyl)-N-[5-(2-pyridyl)-1H-pyrazol-4-yl]pyrazole-3-carboxamide] | > 75 | 123 | 501 | –
2 | C[C@@H](N)[C@H]1CC[C@H](C(=O)Nc2ccncc2)CC1 [Y27632, reference compound] | – | – | – | residual phosphorylated MLC

Source: paper PMC4195943, “A novel small-molecule MRCK inhibitor blocks cancer cell invasion” (Cell Communication and Signaling : CCS, 2014)
